From patent US6362222B1, “Analgesic use of podophyllotoxin for treating pain conditions in female genital organs” (priority 1998, dated 2002)

Columns and labels:
[1] = Topical podophyllotoxin on sore vestibular (Bartholin's) glands in vulvodynia patients; type: in vivo, human
Source text: In the treatment, the vagina is first washed with a 3% acetum solution. The vulva, especially Batrholin's glands are examined by means of colposcopy. A second object is a slightly uneven, netlike area located obliquely behind, at the sides of the outer mouth of the urethra. Sometimes small hyperemetic cavities, small vestibular glands are found in the vulvar region, which are not sore in a healthy person. In vulvodynia they are typically very tender to touch and red, ligulate and with embossed edges. In vulvodynia Bartholin's gland orifices are sometimes closed. These points often start bleeding at palpation.
In accordance with the invention, the sore glands are pencilled with podophyllotoxin. Any commonly used vaginal ointment is applied on the pencilled area. The treatment is repeated twice if necessary at an interval of about one month. The treatment is usually not effective at once, however, in the course of typically two weeks there is no more pain.
The gland orifices were pencilled with a 5% podophyllotoxin solution. The pain during intercourse disappeared at the end of a couple of weeks. After about two years the pain recurred. Podophyllotoxin was applied to the gland orifices anew. At the end of two months the lefthand, still tender gland orifice was pencilled once more.
The patient had undergone hysterectomy because of prolapse and extended cervix. However, the prolapse recurred (enterocele), and was resectioned from below. After the surgery the patient suffered from vaginal pain, which was stronger on the left side. There was no inflammation, the pain persisted. A gynecologist made repeated examinations, found nothing wrong and consulted a neurologist, who made the diagnosis inexplicable postoperative pain. […] Podophyllotoxin was applied twice at one month's interval and once more the following day.
(§1) The patient hade undergone hysterectomy, suffered from pain, a small muscular tumour and adhesions after endometriosis. The patient had suffered from incontinence for about a year. There had been no distinct inflammations. […] They were pencilled. Nevertheless, after about six months the patient returned to the clinic because of pain in the lower abdomen, the back and a sting in the urinary bladder. The sore vaginal peaks were pencilled with podophyllotoxin once more.
A total of 151 patients were treated over a period of two years, and among these 75% had typical vulvodynia symptoms and the remainder atypical other symptoms, such as disorders of the urinary tracts, vaginal dryness, itching and recurrent candidosis. However, intense tenderness to touch of the vestibular glands was typical for all of the patients.
All of the patients were treated in the same way: first the vagina was washed with a 3% solution of acetum, the sore glands were treated with podophyllotoxin and vaginal ointment was applied on this. 46 patients were treated only once and 6 patients were treated 10 times, the patients were treated 2.6 times on the average.

[2] = Topical podophyllotoxin on vaginal peaks in patients with post-hysterectomic pain; type: in vivo, human
Protocol: In accordance with the invention podophyllotoxin can also be used for intense tenderness to touch and palpation in the upper vaginal corners with post-hysterectomic pain, sometimes also with bleed in. After the rinse with acetum the vaginal corners are treated with podophyllotoxin, and vaginal ointment can be applied on the treated areas if necessary. The treatment can be repeated at least three times if necessary, at intervals of either one day or one month.
At the end of about three years the patient returned to the gynecologic outpatient clinic and complained about a strong continual pain in the lower part of the abdomen and a pushing feeling in the rectum. […] The vaginal peaks were treated locally with podophyllotoxin three times at two days' intervals. Especially the right corner was very tender to palpation. After the third treatment there was no more pain.
as §1
Post-hysterectomic pain was examined in 26 patients. The vagina was first washed with a 3% acetum solution and then the vaginal peaks were pencilled with podophyllotoxin. A vaginal ointment was used occasionally on the pencilled areas. The treatment was repeated 1 to 3 times at about one month's intervals.

## COc1cc([C@@H]2c3cc4c(cc3[C@H](O)[C@H]3COC(=O)[C@H]23)OCO4)cc(OC)c1OC [podophyllotoxin]
[1]; Example 1, one patient, Bartholin's gland orifices pencilled with 5% podophyllotoxin solution, at the end of a couple of weeks
  pain during intercourse after treatment: disappeared
[1]; Example 1, recurrence after about two years, gland orifices pencilled anew, left orifice once more after two months, in the course of a couple of weeks
  pain after repeat treatment of recurrence: disappeared completely
[1]; Example 2, one patient, postoperative vaginal pain, left Bartholin's gland and right side of urethra, applied twice at one month's interval and once more the following day
  symptoms after treatment: free of symptoms
[1]; Example 3, one patient, sore glands in the introitus pencilled once, after one month
  pain in the glands after treatment: no pain in the glands
[1]; Example 4, 151 patients treated, 2.6 times on average, about two weeks after the treatment
  number of patients free of symptoms: about one hundred
[1]; Example 4, 151 patients treated, follow-up maximum more than 5 years
  number of patients considered to have probably recovered: 40 patients
[1]; directly after treatment, before relief in the course of a couple of weeks
  immediate effect on pain: increases the pain
[1]; sore glands pencilled, repeated twice if necessary at about one month interval, in the course of typically two weeks
  pain after treatment (general statement): no more pain
[1]; vestibulitis type condition
  pain at small red cavities of the front part of the vulva: relieved
[2]; Example 2, same patient about three years later, vaginal peaks treated three times at two days' intervals, after the third treatment
  pain after treatment of vaginal peaks: no more pain
[2]; Example 3, control one month after last pencilling of vaginal peaks
  incontinence after treatment of vaginal peaks: disappeared
[2]; Example 3, sore vaginal peaks pencilled again about six months later, control one month later
  patient's state at control after treatment of vaginal peaks: completely recovered
[2]; Example 5, 26 patients, vaginal peaks pencilled 1 to 3 times at about one month's intervals, maximum control period 9 months
  number of patients remaining free of symptoms during the control period: 17 patients
[2]; upper vaginal corners treated, repeated at least three times if necessary
  results of treatment (general statement): extremely good
